Data on five compounds can be found in article PMC9849758, “Chemically diverse activity-based probes with unexpected inhibitory mechanisms targeting trypsin-like serine proteases” (Frontiers in Chemistry, 2023).

For assay [1], the system named is proteases in human mast cell supernatants. The experiment in a line: Labeling of mast cell supernatants, functional proteomic profiling. Particulars: 1 µM ABP, 10 µg total protein, two donors, IgE/DNP stimulated and non-stimulated. As for the experimental part:
Peripheral blood mononuclear cells (PBMCs) were obtained from buffy coats (Etablissement Français du Sang). CD34^+ precursors cells were isolated from PBMCs (EasySep™ Human CD34 Positive Selection Kit, STEMCELL Technologies) and grown under serum-free conditions using StemSpanTM medium (STEMCELL Technologies) supplemented with recombinant human IL-6 (50 ng/ml; Peprotech), human IL-3 (10 ng/ml; Peprotech) and 3% supernatant of CHO transfectants secreting murine SCF (a gift from Dr. P. Dubreuil, Marseille, France, 3% correspond to ∼50 ng/ml SCF) for 1 week. Cells were next grown in IMDM Glutamax I, sodium pyruvate, 2-mercaptoethanol, .5% BSA, Insulin-transferrin selenium (all from Invitrogen), penicillin (100 U/ml), streptomycin (100 μg/ml) and 3% supernatant of CHO transfectants secreting murine SCF for 8 weeks then tested phenotypically (CD117+, FcεRI+) and functionally (β-hexosaminidase release in response to FcεRI crosslinking) before use for experiments. Only primary cell lines showing more than 95% CD117+/FcεRI+ cells were used for experiments.
1 × 10^5 mast cells were distributed in 50 µl Tyrode’s Buffer and adapted to 37°C for 30 min. Mast cells were next stimulated with DNP-BSA (200 ng/ml) after sensitization with 1 μg/ml of IgE anti DNP (Sigma-Aldrich) overnight. Supernatants were harvested and stored at −80°C. (β-hexosaminidase was assayed by measuring the release of p-nitrophenol from the substrate p-nitrophenyl N-acetyl-β-D-glucosaminide).
Mast cell supernatants (10 µg of total protein) were labeled with 1 µM individual ABPs (46b, 52b, or 57b) in 50 mM Tris, 120 mM NaCl, .1 mg/ml BSA, 50 μg/ml heparin, pH 8 at 25°C (Sigma-Aldrich) in a final volume of 500 µL. […] The molecular weight of each band was determined with the Image Lab Software v5 (Bio-Rad) with Dual Color Protein Precision Plus Standard (10–250 kDa; Bio-Rad) as reference. […]

The target in another assay is T1, CatG (Homo sapiens, UniProt P08311).
T1 sequence (P08311 21-255): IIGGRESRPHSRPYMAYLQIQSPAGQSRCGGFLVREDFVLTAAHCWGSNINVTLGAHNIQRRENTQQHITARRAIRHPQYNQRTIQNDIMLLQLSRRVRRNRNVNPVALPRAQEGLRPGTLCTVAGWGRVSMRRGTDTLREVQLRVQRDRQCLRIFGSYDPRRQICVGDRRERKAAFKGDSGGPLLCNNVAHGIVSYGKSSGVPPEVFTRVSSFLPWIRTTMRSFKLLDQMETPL
The experiment in a line: Labeling and detection of recombinant proteases (SDS-PAGE blot, NeutrAvidin-HRP). The format is binding. Conditions: 1 µM ABP, 100 ng protease, 30 min 37°C, denaturing SDS-PAGE blot. Here is the method: Recombinant proteases (100 ng) were labeled with 1 µM ABP in reaction buffer in a final volume of 40 µL for 30 min at 37°C. After the addition of 4X Laemmli buffer (Bio-Rad, GmbH) supplemented with Bond-Breaker Tris (2-CarboxyEthyl)Phosphine (TCEP) Solution (Thermo Scientific, United States), the samples were heated at 95°C for 5 min and loaded into 4%–20% Mini-Protean TGX precast gels (Bio-Rad, GmbH). After electrophoresis, the proteins were blotted onto nitrocellulose membranes using the Trans-Blot Transfer Turbo System (Bio-Rad). Membranes were incubated with NeutrAvidin-HRP (1:50,000), and bands were visualized with ECL Select Western Blot Detection Reagent (GE Healthcare Life Sciences) by chemiluminescence (Chemidoc XRS; Bio-Rad). The molecular weight of each band was determined with the Image Lab Software v5 (Bio-Rad).
To further characterize the newly synthesized compounds and their potential to be used as ABPs, nine desthiobiotin probes were used for the labeling and detection of recombinant proteases. The arginine (45b–46b) and the proline-lysine (58b) desthiobiotin probes were used as reference compounds. Whereas the benzyl guanidine (50b, 52b, 54b) and phenyl guanidine probes (55b–57b) were used to determine whether the mechanism of inhibition (reversible or irreversible) is an obstacle to visualize the proteases. Samples of human recombinant proteases (trypsin-3, β-tryptase, and CatG) were incubated with the different probes before electrophoresis and detection with NeutrAvidin-HRP on a Western blot. Figure 7A illustrates the ability of the desthiobiotin probes to indicate the presence of the corresponding trypsin-like enzyme. […] This effect can be explained due to the strong interactions between the active site of the protease and the probes. The high affinity and the slow off-rates were described in Table 5 by the equilibrium constants KI*. Assuming that there is an excess of inhibitor over enzyme, the free inhibitor concentration must be very low, lower than the KI*, in order for the complex to dissociate. Therefore, the high affinity complex E*I survives during the whole process of labeling, gel electrophoresis, and visualization.

“Also recorded” adds a separate entry of the source. Structures can show the parent of a compound that is named as a salt.

In the case of `C[C@@H]1NC(=O)N[C@@H]1CCCCCC(=O)NCCOCCOCCOCCn1cc(CCCOC(=O)NC(c2ccc(NC(=N)N)cc2)P(=O)(Oc2ccc(Cl)cc2)Oc2ccc(Cl)cc2)nn1` (stereo partly drawn) [57b], the “labeling of proteases in mast cell supernatants” value (“labeling of proteases” for short) in assay [1] is given as “can label proteases in a complex proteome”.

In the case of `C[C@@H]1NC(=O)N[C@@H]1CCCCCC(=O)NCCOCCOCCOCCn1cc(CCCOC(=O)NC(Cc2ccc(NC(=N)N)cc2)P(=O)(Oc2ccccc2)Oc2ccccc2)nn1` (stereo partly drawn) [50b, 3-(1-(18-((4R,5S)-5-methyl-2-oxoimidazolidin-4-yl)-13-oxo-3,6,9-trioxa-12-azaoctadecyl)-1H-1,2,3-triazol-4-yl)propyl (1-(diphenoxyphosphoryl)-2-(4-guanidinophenyl)ethyl)carbamate trifluoroacetate salt], on CatG, the “labeling of recombinant CatG” value is listed as “can label”. On the same count and under the same terms, in the case of `CC(=O)Nc1ccc(OP(=O)(Oc2ccc(NC(C)=O)cc2)C(Cc2ccc(NC(=N)N)cc2)NC(=O)OCCCc2cn(CCOCCOCCOCCNC(=O)CCCCC[C@H]3NC(=O)N[C@H]3C)nn2)cc1` (stereo partly drawn) [52b] it was “can label”.

Turning to `C[C@@H]1NC(=O)N[C@@H]1CCCCCC(=O)NCCOCCOCCOCCn1cc(CCCOC(=O)NC(Cc2ccc(NC(=N)N)cc2)P(=O)(Oc2ccc(Cl)cc2)Oc2ccc(Cl)cc2)nn1` (stereo partly drawn) [54b], at CatG, the “labeling of recombinant CatG” value is “can label”. In addition, the “labeling of proteases” value in assay [1] was “can label proteases in a complex proteome; also recorded: best resolution”. Consider `C[C@@H]1NC(=O)N[C@@H]1CCCCCC(=O)NCCOCCOCCOCCn1cc(CCCOC(=O)NC(CCCNC(=N)N)P(=O)(Oc2ccc(Cl)cc2)Oc2ccc(Cl)cc2)nn1` (stereo partly drawn) [46b], for which, in assay [1], the “labeling of proteases” value is listed as “can label proteases in a complex proteome”.
